The first series concerns the target T1, D2 receptors from human (Homo sapiens, UniProt P14416).
T1 construct: expressed in transfected cells; host or cells: COS cells
Description: D2 receptor binding assay (3H-YM 09151-2 displacement). The following applies: COS cells containing recombinantly produced human D2 receptors; 0.5 nM 3H-YM 09151-2. The method, then:
(§1) Assays for D2, D3 and D4 Receptor Binding Activity
(§2) Pellets of COS cells containing recombinantly produced D2 or D4 receptors from human are used for the assays. The sample is homogenized in 100 volumes (w/vol) of 0.05 M Tris HCl buffer at 4° C. and pH 7.4. The sample is then centrifuged at 30,000×g and resuspended and rehomogenized. The sample is then centrifuged again at 30,000×g and the final tissue sample is frozen until use. The tissue is resuspended 1:20 (wt/vol) in 0.05 M Tris HCl buffer containing 100 mM NaCl.
(§3) Incubations are carried out a […] and contain 0.4 ml of tissue sample, 0.5 nM ^3H-YM 09151-2 (Nemonapride, cis-5-Chloro-2-methoxy-4-(methylamino)-N-(2-methyl-2-(phenylmethyl)-3-pyrrolidinyl)benzamide) and the compound of interest in a total incubation of 1.0 ml. Nonspecific binding is defined as that binding found in the presence of […] spiperone; without further additions, nonspecific binding is less than 20% of total binding.
T1 sequence (P14416 whole entry): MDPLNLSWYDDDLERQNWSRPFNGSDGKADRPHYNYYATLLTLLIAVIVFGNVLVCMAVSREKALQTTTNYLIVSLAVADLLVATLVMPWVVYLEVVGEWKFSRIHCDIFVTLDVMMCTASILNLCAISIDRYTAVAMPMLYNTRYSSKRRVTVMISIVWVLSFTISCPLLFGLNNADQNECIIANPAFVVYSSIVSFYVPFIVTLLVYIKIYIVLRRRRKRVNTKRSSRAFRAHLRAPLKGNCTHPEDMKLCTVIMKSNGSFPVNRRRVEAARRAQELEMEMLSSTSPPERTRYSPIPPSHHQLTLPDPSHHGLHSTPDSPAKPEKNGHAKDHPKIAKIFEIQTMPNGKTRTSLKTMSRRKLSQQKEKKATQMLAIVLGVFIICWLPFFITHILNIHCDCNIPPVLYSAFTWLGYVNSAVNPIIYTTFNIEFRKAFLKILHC
A word on the Ki: it is a dissociation constant, usually derived from enzyme kinetics or from competition with a known ligand. `Fc1cnc(N2CCN(CCCCNc3nc4ccccc4s3)CC2)nc1` [Compound 6]: the Ki worked out at 1640 nM.

With `Cl.c1ccc(N2CCN(CCNc3nc4ccccc4o3)CC2)nc1` [Compound 3, 1-(Pyridin-2-yl)-4-(2-[benzoxazol-2-yl]aminoethyl)piperazine hydrochloride], the Ki was > 10000 nM. In the case of `COc1ccccc1N1CCN(CCNc2nc3ccc(F)cc3s2)CC1` [Compound 2, 1-(2-Methoxyphenyl)-4-(2-[6-fluorobenzothiazol-2-ylamino]ethyl)piperazine difumarate], the Ki came out at 175 nM. Same read-out and setting: the value for `Br.Cn1c(NCCN2CCN(c3cccc(C(F)(F)F)c3)CC2)nc2ccccc21` [Compound 1, 1-(3-Trifluoromethylphenyl)-4-(2-[1-methylbenzimidazol-2-yl]aminoethyl)piperazine hydrobromide] was > 10000 nM.

In a further series the target is T2, D4 receptors from human (Homo sapiens, UniProt P21917).
T2 construct: expressed in transfected cells; host or cells: COS cells
T2 sequence (P21917 1-419): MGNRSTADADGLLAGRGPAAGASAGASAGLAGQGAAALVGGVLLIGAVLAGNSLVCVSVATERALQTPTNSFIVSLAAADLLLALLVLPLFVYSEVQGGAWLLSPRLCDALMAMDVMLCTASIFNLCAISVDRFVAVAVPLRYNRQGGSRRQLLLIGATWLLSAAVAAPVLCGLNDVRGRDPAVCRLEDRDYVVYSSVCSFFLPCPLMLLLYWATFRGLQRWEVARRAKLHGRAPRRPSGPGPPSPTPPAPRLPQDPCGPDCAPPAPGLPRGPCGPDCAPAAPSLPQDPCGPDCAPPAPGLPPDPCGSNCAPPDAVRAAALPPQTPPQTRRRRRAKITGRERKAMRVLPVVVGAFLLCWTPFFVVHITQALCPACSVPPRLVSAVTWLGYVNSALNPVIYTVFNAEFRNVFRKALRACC
Description: D4 receptor binding assay (3H-YM 09151-2 displacement). The following applies: COS cells containing recombinantly produced human D4 receptors; 0.5 nM 3H-YM 09151-2. The method, then:
as §1, §2, §3
As to `Fc1cnc(N2CCN(CCCCNc3nc4ccccc4s3)CC2)nc1` [Compound 6], the Ki stood at 6 nM. As to `Cl.c1ccc(N2CCN(CCNc3nc4ccccc4o3)CC2)nc1` [Compound 3, 1-(Pyridin-2-yl)-4-(2-[benzoxazol-2-yl]aminoethyl)piperazine hydrochloride], the Ki came to 11 nM. On to `COc1ccccc1N1CCN(CCNc2nc3ccc(F)cc3s2)CC1` [Compound 2, 1-(2-Methoxyphenyl)-4-(2-[6-fluorobenzothiazol-2-ylamino]ethyl)piperazine difumarate], for which the Ki is 1 nM. As for `Br.Cn1c(NCCN2CCN(c3cccc(C(F)(F)F)c3)CC2)nc2ccccc21` [Compound 1, 1-(3-Trifluoromethylphenyl)-4-(2-[1-methylbenzimidazol-2-yl]aminoethyl)piperazine hydrobromide], the inhibition constant Ki was 3 nM.

Test system in another series: not given
Assay: not given
Conditions: not given
Broadly, the melting point is the temperature of the solid-liquid transition. `Br.Cc1cnc(N2CCN(CCNc3nc4ccc(F)cc4s3)CC2)nc1`: the melting point was 240 to 250 °C. Same read-out and setting: the value for `Br.Fc1ccc2nc(NCCN3CCN(c4cccc(C(F)(F)F)c4)CC3)sc2c1` was 259 to 261 °C; that for `Br.COc1ccccc1N1CCN(CCNc2nc3c(Cl)cccc3s2)CC1` was 194 to 195 °C; that for `O=C(O)/C=C/C(=O)O.O=C(O)/C=C/C(=O)O.c1ccc(N2CCN(CCNc3nc4ccccc4s3)CC2)cc1` was 131 to 132 °C.

In the case of `Cl.Cl.Clc1ccc(N2CCN(CCNc3nc4ccccc4s3)CC2)cc1`, the melting point is 230 to 232 °C.

Regarding `Cc1cnc(N2CCN(CCNc3nc4ccccc4s3)CC2)nc1.O=C(O)/C=C/C(=O)O.O=C(O)/C=C/C(=O)O`, the melting point is 167 to 170 °C. Take `Br.Fc1cnc(N2CCN(CCNc3nc4ccc(F)cc4s3)CC2)nc1`: the melting point was 279 to 281 °C. As to `O=C(O)/C=C/C(=O)O.O=C(O)/C=C/C(=O)O.c1ccc(N2CCN(CCNc3nc4ccccc4s3)CC2)nc1`, the melting point fell in the range of 159 to 160 °C. Turning to `Cl.c1ccc(N2CCN(CCNc3nc4ccccc4o3)CC2)nc1` [Compound 3, 1-(Pyridin-2-yl)-4-(2-[benzoxazol-2-yl]aminoethyl)piperazine hydrochloride], the melting point lay within 255 to 265 °C. With `Br.Fc1ccc2nc(NCCN3CCN(c4ccccn4)CC3)sc2c1`, the melting point is 259 to 260 °C. `Fc1cnc(N2CCN(CCNc3nc4ccccc4s3)CC2)nc1.O=C(O)/C=C/C(=O)O.O=C(O)/C=C/C(=O)O` gave a melting point of 174 to 175 °C. As for `Br.COc1ccccc1N1CCN(CCNc2nc3ccccc3[nH]2)CC1`, the melting point lay in the range of 215 to 216 °C.

With `Br.CC(C)Oc1ccccc1N1CCN(CCNc2nc3ccc(F)cc3s2)CC1`, the melting point was in the range of 216 to 217 °C. The same measure, in the same setting: the figure for `COc1ccccc1N1CCN(CCNc2nc3ccccc3s2)CC1.O=C(O)/C=C/C(=O)O.O=C(O)/C=C/C(=O)O` is 101 to 103 °C; for `Br.CCn1c(NCCN2CCN(c3ccccc3)CC2)nc2ccccc21` it is 270 °C (dec.); for `Br.COc1ccccc1N1CCN(CCCNc2nc3ccccc3s2)CC1` it is 195 to 197 °C.

Compound `Br.COc1ccccc1N1CCN(CCNc2nc3ccc(S(C)(=O)=O)cc3s2)CC1` registered a melting point of 190 to 196 °C.

In the case of `Cl.c1cnc(N2CCN(CCNc3nc4ccccc4o3)CC2)nc1`, the melting point fell in the range of 197 to 202 °C. In turn, `Fc1ccc2nc(NCCN3CCN(Cc4ccccc4)CC3)sc2c1.O=C(O)/C=C/C(=O)O.O=C(O)/C=C/C(=O)O` gave a melting point of 228 to 229 °C.

`Br.c1ccc(N2CCN(CCNc3nc4ccccc4[nH]3)CC2)nc1` returned a melting point of 290 to 291 °C. In turn, `Br.c1ccc(N2CCN(CCNc3nc4ccccc4[nH]3)CC2)cc1` had a melting point of 241 to 247 °C. In turn, `Br.COc1ccccc1N1CCN(CCNc2nc3c(OC)cccc3s2)CC1` yielded a melting point of 171 to 173 °C. Compound `Br.Fc1ccc2nc(NCCN3CCN(c4ccccc4)CC3)sc2c1` registered a melting point of 268 to 270 °C. `Br.COc1ccccc1N1CCN(CCNc2nc3c(C)cccc3s2)CC1` displayed a melting point of 226 to 227 °C.

Regarding `Br.CC(C)Oc1ccccc1N1CCN(CCNc2nc3ccccc3n2C)CC1`, the melting point is 285 °C (dec.).

On to `Br.CCOc1ccccc1N1CCN(CCNc2nc3ccc(F)cc3s2)CC1`, for which the melting point is 235 to 237 °C.

Take `Br.Fc1ccc2nc(NCCN3CCN(Cc4ccc(Cl)cc4)CC3)sc2c1`: the melting point lay within 238 to 240 °C. As for `Br.CCOc1ccc2nc(NCCN3CCN(c4ccccc4OC)CC3)sc2c1`, the melting point was 227 to 228 °C.

The compound `Br.CCn1c(NCCN2CCN(c3ccccc3OC)CC2)nc2ccccc21` showed a melting point of 109 to 110 °C. On the same count and under the same terms, the figure for `Br.COc1ccccc1N1CCN(CCNc2nc3ccccc3n2C)CC1` is 273 to 274 °C; for `Br.Cn1c(NCCN2CCN(c3cccc(C(F)(F)F)c3)CC2)nc2ccccc21` [Compound 1, 1-(3-Trifluoromethylphenyl)-4-(2-[1-methylbenzimidazol-2-yl]aminoethyl)piperazine hydrobromide] it is 283 °C (dec.).

Take `O=C(O)/C=C/C(=O)O.O=C(O)/C=C/C(=O)O.c1cnc(N2CCN(CCNc3nc4ccccc4s3)CC2)nc1`: the melting point is 161 to 163 °C. `Cl.Cl.Fc1ccc(N2CCN(CCNc3nc4ccccc4s3)CC2)cc1` registered a melting point of 229 to 231 °C. In turn, `Fc1ccc2nc(NCCN3CCN(c4ncccn4)CC3)sc2c1.O=C(O)/C=C/C(=O)O.O=C(O)/C=C/C(=O)O` had a melting point of 179 to 180 °C. For the compound `Br.Fc1ccc(N2CCN(CCNc3nc4ccc(F)cc4s3)CC2)cc1`, the melting point lay in the range of 270 to 271 °C.

Source of the values: patent US6432958B1, “2-piperazinoalkylaminobenzoazole derivatives: dopamine receptor subtype specific ligands” (Neurogen Corporation, priority 1998, dated 2002).
